Test results published in patent US20030144346A1, “Methods and compositions for regulation of 5-alpha reductase activity” (priority 1997, published 2003).
Values joined by “and” are separate entries in the source; they are usually repeats but may differ in a detail not shown here. Identical values can stand only once.

Columns and labels:
[1] = test system: human prostate and breast tumors; assay: Human prostate and breast tumors in animal models; assay type: in vivo, nude mice
Procedure: A compound of this invention can be used to treat breast or prostate cancer. […] By way of example, human prostate cancer PC-3 cells are grown in culture medium. About one million cells are injected into male nude mice and the growth of tumors followed. Within two weeks, the tumor grows to about 100 mm^3. Three tumor bearing mice are injected with a test compound each day.

[2] = Body and organ weight loss; assay type: in vivo; settings: compared with ECG
Procedure: By way of example, male Sprague-Dawley rats (body weight 180 g±10 g) are used. Compounds are intraperitoneally injected into rats in one group each day for 7 days. Rats in the control group receive 0.1 ml 30% ethanol. Body and organ weights are determined.

[3] = biological target: T1, type 1 human 5α-reductase (HRED1) (Homo sapiens, UniProt P18405); assay: Whole cell assay of 5α-reductase, type 1 isoenzyme; assay type: cell-based; set-up: expressed in transfected cells; host or cells: rat 1A cells infected with pMV7 retrovirus;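 note: intact rat 1A cells engineered to express the human type 1 5α-reductase isozyme serve as the enzyme source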
T1 sequence (P18405 1-259): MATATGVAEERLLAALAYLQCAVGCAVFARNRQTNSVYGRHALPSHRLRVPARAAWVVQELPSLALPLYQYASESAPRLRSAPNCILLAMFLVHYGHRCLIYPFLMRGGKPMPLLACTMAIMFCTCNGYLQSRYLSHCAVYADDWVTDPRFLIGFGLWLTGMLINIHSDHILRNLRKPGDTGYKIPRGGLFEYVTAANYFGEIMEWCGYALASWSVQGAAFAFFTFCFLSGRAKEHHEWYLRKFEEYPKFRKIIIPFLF

[4] = biological target: T2, type 2 human 5α-reductase (HRED2) (Homo sapiens, UniProt P31213); assay: Whole cell assay of 5α-reductase, type 2 isoenzyme; assay type: cell-based; set-up: expressed in transfected cells; host or cells: rat 1A cells infected with pMV7 retrovirus; settings: for inhibition at 100 µM: Table 7; for IC50: Table 7, read-out: HCRED2 IC50;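 for all read-outs here: intact rat 1A cells genetically modified to carry human type 2 5α-reductase served as the enzyme source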
T2 sequence (P31213 1-254): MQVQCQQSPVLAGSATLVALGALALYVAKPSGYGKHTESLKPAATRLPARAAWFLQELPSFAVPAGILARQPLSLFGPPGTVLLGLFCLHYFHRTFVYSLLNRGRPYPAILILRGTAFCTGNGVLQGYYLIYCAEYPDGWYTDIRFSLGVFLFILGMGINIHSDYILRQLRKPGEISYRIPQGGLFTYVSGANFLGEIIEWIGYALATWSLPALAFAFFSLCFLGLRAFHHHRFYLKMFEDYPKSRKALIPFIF

[5] = biological target: T1, type 1 human 5α-reductase (HRED1); assay: Cell free assay of 5α-reductase, microsomes of rat 1A cells expressing type 1 isoenzyme (HRED1); assay type: biochemical; set-up: expressed in transfected cells; host or cells: rat 1A cells infected with pMV7 retrovirus; microsomes;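 note: microsomes from rat 1A cells expressing human type 1 5α-reductase, conversion of radiolabeled testosterone to dihydrotestosterone quantified by thin layer chromatography with radioanalytic scanning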
[6] = test system: 5α-reductases isozyme 2 and isozyme 1; settings: Russell and Wilson, 1994; cited from earlier work
[7] = biological target: T2, type 2 human 5α-reductase (HRED2); assay: Cell free assay of 5α-reductase, microsomes of rat 1A cells expressing type 2 isoenzyme (HRED2); assay type: biochemical; set-up: expressed in transfected cells; host or cells: rat 1A cells infected with pMV7 retrovirus; microsomes;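 note: labeled testosterone and its product dihydrotestosterone measured in microsomal reaction extracts via thin layer chromatography plus radioanalytic scanning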
[8] = 100 μM, whole cell assay, Table 7
[9] = whole cell assay, Table 7, read-out: HCRED1 IC50
[10] = 100 uM, cell free assay, Table 2, read-out: HRED1 % Inhibition @ 100 uM
[11] = cell free assay, Table 2 catechols, read-out: HRED1 IC50
[12] = 100 uM, cell free assay, Table 2, read-out: HRED2 % Inhibition @ 100 uM
[13] = cell free assay, Table 2 catechols, read-out: HRED2 IC50

With `O=C(O[C@@H]1Cc2c(O)cc(O)cc2O[C@@H]1c1cc(O)c(O)c(O)c1)c1cc(O)c(O)c(O)c1` [Epigallocatechin Gallate] the “effect on size of human prostate and breast tumors” value [1] was “surprisingly effective in suppressing and even reducing the size”, the “reduction of body weight” value [2] was “significantly more effective” and the “inhibitory activity in the whole cell assay, type 1 isoenzyme, in words” value ([3]; whole cell assay) was “low”. For the same molecule, the “HRED2 % Inhibition @ 100 μM” value ([4]; Table 7, listed as EGCG) was 5% and 0% and the “inhibitory activity against type 1 isoenzyme, in words” value ([5]; cell-free assay) was “high”.
For `CC(C)(C)NC(=O)[C@H]1CC[C@H]2[C@@H]3CC[C@H]4NC(=O)C=C[C@]4(C)[C@H]3CC[C@]12C` [Finasteride], the “affinity for isozyme 2 relative to isozyme 1” value [6] is given as 30 fold.
Molecule `CCCCCCCC/C=C\CCCCCCCC(=O)O` [Oleic Acid, Oleic Acid C18:1 CIS 9] has an inhibition at 100 µM [3, 8] of 58%, an IC50 ([3]; HCRED1 IC50, whole cell assay, Table 7) of 83 µM and an inhibition at 100 µM [4] of 45%. The IC50 [4] was over 100 µM, the IC50 [5] was 10 µM and the inhibition at 100 µM ([5]; read-out: HRED1 % Inhibition @ 100 μM) was 99%. It also gave an IC50 [7] of 42 µM and an inhibition at 100 µM ([7]; read-out: HRED2 % Inhibition @ 100 μM) of 86%.
Work on `CCCOC(=O)c1cc(O)c(O)c(O)c1` [Propylgallate] yielded an inhibition at 100 µM [3, 8] of 5%, an IC50 [3, 9] of over 100 µM and an inhibition at 100 µM [4] of 0%. For the same molecule, the IC50 [4] was over 100 µM, the inhibition at 100 µM [5, 10] was 0% and the IC50 [5, 11] was over 100 µM. It also gave an inhibition at 100 µM [7, 12] of 0% and an IC50 [7, 13] of over 100 µM.
`O=C1c2ccccc2C(=O)c2c(O)c(O)cc(O)c21` [Purpurin] showed an inhibition at 100 µM [3, 8] of 47%, an IC50 [3, 9] of over 100 µM and an inhibition at 100 µM [4] of 7%. It also gave an IC50 [4] of over 100 µM, an IC50 ([5]; cell free assay, Table 4 quinones, read-out: HRED1 IC50) of 2 µM and an IC50 ([7]; cell free assay, Table 4 quinones, read-out: HRED2 IC50) of over 100 µM.
With `Oc1cccc(O)c1O` [Pyrogallol] the “HRED1 % Inhibition @ 100 μM” value [3, 8] was 5%, the inhibition at 100 µM [3, 8] was 7% and the IC50 [3, 9] was over 100 µM. For the same molecule, the “HRED2 % Inhibition @ 100 μM” value ([4]; Table 7, 100 µM) was 6%, the IC50 [4] was over 100 µM and the inhibition at 100 µM [5, 10] was 60%. It also gave an IC50 [5, 11] of 70 µM, an inhibition at 100 µM [7, 12] of 28% and an IC50 [7, 13] of over 100 µM.
`O=c1c(O)c(-c2ccc(O)c(O)c2)oc2cc(O)cc(O)c12` [Quercitin] gave an inhibition at 100 µM [3, 8] of 15%, an IC50 [3, 9] of over 100 µM and an inhibition at 100 µM [4] of 29%. It also gave an IC50 [4] of over 100 µM, an inhibition at 100 µM ([5]; 100 uM, cell free assay, Table 1, read-out: HRED1 % Inhibition @ 100 uM) of 96% and an IC50 ([5]; cell free assay, Table 1 flavanoids, read-out: HRED1 IC50) of 23 µM. For the same molecule, the IC50 ([5]; cell-free assay, read-out: IC50, type 1 isoenzyme) was under 100 µM, the inhibition at 100 µM ([7]; 100 uM, cell free assay, Table 1, read-out: HRED2 % Inhibition @ 100 uM) was 14% and the IC50 ([7]; cell free assay, Table 1 flavanoids, read-out: HRED2 IC50) was over 100 µM.
Molecule `CCCCCCCCCCCCCCCCCC(=O)O` [Stearic Acid, Stearic Acid C18:0] has an inhibition at 100 µM [3, 8] of 10%, an IC50 [3, 9] of over 100 µM and an inhibition at 100 µM [4] of 23%. For the same molecule, the IC50 [4] was over 100 µM, the inhibition at 100 µM ([5]; 100 μM, cell free assay, Table 6, read-out: HRED1 % Inhibition @ 100 μM) was 71% and the IC50 ([5]; cell free assay, Table 6 fatty acids, read-out: HRED1 IC50) was 27 µM. It also gave an inhibition at 100 µM ([7]; 100 μM, cell free assay, Table 6, read-out: HRED2 % Inhibition @ 100 μM) of 35% and an IC50 ([7]; cell free assay, Table 6 fatty acids, read-out: HRED2 IC50) of over 100 µM.
For `COc1cc(CCC(=O)CC(=O)CCc2ccc(O)c(OC)c2)ccc1O` [Tetrahydrocurcumin], the inhibition at 100 µM [3, 8] was 81%, the IC50 [3, 9] was 36 µM and the inhibition at 100 µM [4] was 92%. It also gave an IC50 [4] of 7 µM, an IC50 ([5]; cell free assay, Table 3 curcumin and related compounds, read-out: HRED1 IC50) of 80 µM and an inhibition at 100 µM ([5]; read-out: HRED1 % Inhibition @ 100 uM) of 56%. For the same molecule, the inhibition at 100 µM ([7]; read-out: HRED2 % Inhibition @ 100 uM) was 73% and the IC50 ([7]; read-out: HRED2 IC50) was 29 µM.
